Test results published in patent US12178878B2, “Amyloid peptide scaffolds coordinate with Alzheimer's disease drugs” (The University of Massachusetts, priority 2018, dated 2024).
Read-outs that look alike come from different tables or passages of the source.

Experiments:
Type in all cases: binding
[1] = tested on: […] (SEQ ID NO: 3) amyloid peptide; assay: Amyloid peptide/inhibitor coordination in dilute solution (1 mg/mL), drug captured after pellet washings; settings: for AD compound captured, Wash 1 / AD compound captured, Wash 2 / AD compound captured, Wash 3: 150 μM inhibitor loaded; for AD compound captured, Wash 1: 1st pellet wash; for AD compound captured, Wash 2: 2nd pellet wash; for AD compound captured, Wash 3: 3rd pellet wash; for fraction of the 150 μM loaded drug incorporated into the peptide: UV-Vis, first wash
Experimental: Amyloid Peptide/Inhibitor Coordination Studies in Dilute Solutions. […] Subsequently, 1 mL of DI water was added to wash the pellet (followed by vortexing until obtaining a homogenous dispersion) in order to remove any unbound inhibitor. The samples were then centrifuged again at the same conditions so as to pelletize the amyloid materials, and the supernatant was decanted. Another 1 mL of DI water was then added into the pellet, the mixture was vortexed, and the physically bound inhibitor into the dilute amyloid peptide dispersions was quantified by UV-Vis between 200-600 nm and MS. This step is denoted as wash 1 in our study. Two additional pellet purification cycles were realized with replacement of the decanted volume each time with 1 mL of fresh DI water (denoted as wash 2 and wash 3 respectively). The inhibitor-containing peptides amyloids were normalized at 400 nm over the respective no inhibitor-containing amyloid peptides at the specific washing step, and the measured inhibitor peak values (at 315 nm and 323 nm) were subtracted from that of the amyloid peptide carriers at the same wavelength and concentration. The amount of inhibitors coordinated with the amyloid peptide carriers was quantified based on a calibration curve by both UV-Vis and MS.
The peak at 315 nm was selected for inhibitor quantification due the absence of peaks at that range for both peptides. […] However, the peak at 315 nm was selected for inhibitor quantification, and the following equation was used for both peptides: A315=A315 ([…]/Donepezil)−A315 ([…])
The peak at 323 nm was used for inhibitor quantification due the absence of peaks at that range for both peptides.

[2] = tested on: […] (SEQ ID NO: 4) amyloid peptide; settings: for capturing efficiency: relative to 2nd pellet wash, UV-Vis; for AD compound captured, Wash 1 / AD compound captured, Wash 2 / AD compound captured, Wash 3: 1000 μM inhibitor solution added; for AD compound captured, Wash 1: 1st pellet wash; for AD compound captured, Wash 2: 2nd pellet wash; for AD compound captured, Wash 2 / AD compound captured, Wash 3: room temperature; for AD compound captured, Wash 3: 3rd pellet wash
Experimental: (§1) Amyloid Fibrils Preparation and Characterization. For the formation of fibrils, the amyloid peptides were dispersed in DI water at a 10 mg/ml, vortexed, heated at 60° C. for 30 sec, and sonicated for 15 mins (this cycle was repeated 10 times overall), and finally left overnight at room temperature to form a hydrogel.
(§2) A control using 1 mL of 0.1 M PBS (no inhibitor) was also prepared. The complexed amyloid/inhibitor materials were then transferred to 5 mL conical Eppendorf tubes, and centrifuged for 15 mins at 4,400 rpm (14° C.). The supernatant was decanted, and 2 mL of DI water were subsequently added to wash the pellet (followed by vortexing until obtaining a homogenous dispersion) in order to remove any unbound inhibitor. The samples were then centrifuged again at the same conditions so as to pelletize the amyloid materials, and the supernatant was decanted. Another 2 mL of DI water were then added into the pellet, the mixture was vortexed, and the physically bound inhibitor into the amyloid peptides was quantified by UV-Vis between 200-600 nm and MS. This step is denoted as wash 1 in our study. Two additional pellet purification cycles were realized with replacement of the decanted volume each time with 2 mL of fresh DI water (denoted as wash 2 and wash 3 respectively). The inhibitor-containing amyloid peptides were normalized at 400 nm over the respective no inhibitor-containing ones at the specific washing step.

[3] = tested on: […] (SEQ ID NO: 3) amyloid peptide; assay: Coordination at higher peptide concentration (amyloid gel, 5 mg/mL), inhibitor capturing; settings: for capturing efficiency: relative to 2nd pellet wash, UV-Vis; for AD compound captured, Wash 1 / AD compound captured, Wash 2 / AD compound captured, Wash 3: 1000 μM inhibitor solution added; for AD compound captured, Wash 1: 1st pellet wash; for AD compound captured, Wash 2: 2nd pellet wash; for AD compound captured, Wash 3: 3rd pellet wash
Experimental: as §1, with “hydrogel. […] That was confirmed with Field Emission Scanning Electron Microscopy (FESEM) and Congo Red staining (CR).” for “hydrogel.”
as §2, with “Coordination Studies at Higher Peptide Concentrations and Inhibitor Capturing. […] (SEQ ID NO: 4) or […] (SEQ ID NO: 3) amyloid peptide gels (10 mg/mL, 1 mL volume) and was left to physically complex under stirring overnight (the final peptide concentration was diluted to 5 mg/mL). A control” for “A control”

[4] = YFTGAIIGNFY gel 5 mg/mL, by UV-Vis
[5] = FYTGAIIGNYF gel 5 mg/mL, by UV-Vis

COc1cc2c(cc1OC)C(=O)C(CC1CCN(Cc3ccccc3)CC1)C2 (stereo not drawn) [donepezil]
AD compound captured, Wash 1 ([1]; FYTGAIIGNYF 1 mg/mL, by MS): 51 ± 3 µM
AD compound captured, Wash 2 ([1]; FYTGAIIGNYF 1 mg/mL, by MS): 47 ± 0 µM
AD compound captured, Wash 3 ([1]; FYTGAIIGNYF 1 mg/mL, by MS): 43 ± 4 µM
AD compound captured, Wash 1 ([1]; FYTGAIIGNYF 1 mg/mL, by UV-Vis): 33 µM
AD compound captured, Wash 1 ([1]; FYTGAIIGNYF 1 mg/mL, by UV-Vis, listed as Donepezil): 33 ± 4 µM
AD compound captured, Wash 2 ([1]; FYTGAIIGNYF 1 mg/mL, by UV-Vis): 28 ± 5 µM
AD compound captured, Wash 3 ([1]; FYTGAIIGNYF 1 mg/mL, by UV-Vis): 20 ± 5 µM
fraction of the 150 μM loaded drug incorporated into the peptide ([1]; FYTGAIIGNYF 1 mg/mL): approximately ⅕
capturing efficiency ([2]; YFTGAIIGNFY 5 mg/mL): 14%
AD compound captured, Wash 1 ([2]; YFTGAIIGNFY gel 5 mg/mL, by MS): 154 ± 7 µM
AD compound captured, Wash 2 ([2]; YFTGAIIGNFY gel 5 mg/mL, by MS): 141 ± 10 µM
AD compound captured, Wash 3 ([2]; YFTGAIIGNFY gel 5 mg/mL, by MS): 129 ± 24 µM
AD compound captured, Wash 1 [2, 4]: 154 ± 11 µM
AD compound captured, Wash 2 [2, 4]: 135 ± 8 µM
AD compound captured, Wash 3 [2, 4]: 117 ± 5 µM
capturing efficiency ([3]; FYTGAIIGNYF 5 mg/mL): 17%
AD compound captured, Wash 1 ([3]; FYTGAIIGNYF gel 5 mg/mL, by MS): 163 ± 4 µM
AD compound captured, Wash 2 ([3]; FYTGAIIGNYF gel 5 mg/mL, by MS): 151 ± 1 µM
AD compound captured, Wash 3 ([3]; FYTGAIIGNYF gel 5 mg/mL, by MS): 148 ± 3 µM
AD compound captured, Wash 1 [3, 5]: 187 ± 19 µM
AD compound captured, Wash 2 [3, 5]: 173 ± 33 µM
AD compound captured, Wash 3 [3, 5]: 160 ± 33 µM

Nc1c2c(nc3ccccc13)CCCC2 [tacrine]
AD compound captured, Wash 1 ([1]; […] 1 mg/mL, by MS): 29 ± 4 µM
AD compound captured, Wash 2 ([1]; […] 1 mg/mL, by MS): 24 ± 8 µM
AD compound captured, Wash 3 ([1]; […] 1 mg/mL, by MS): 23 ± 6 µM
AD compound captured, Wash 2 ([1]; […] 1 mg/mL, by UV-Vis): 17 ± 4 µM
AD compound captured, Wash 3 ([1]; […] 1 mg/mL, by UV-Vis): 13 ± 3 µM
fraction of the 150 μM loaded drug incorporated into the peptide ([1]; […] 1 mg/mL): approximately 1/7
capturing efficiency ([2]; […] 5 mg/mL): approximately 8%
AD compound captured, Wash 1 ([2]; […] gel 5 mg/mL, by MS): 98 ± 9 µM
AD compound captured, Wash 2 ([2]; […] gel 5 mg/mL, by MS): 75 ± 4 µM
AD compound captured, Wash 3 ([2]; […] gel 5 mg/mL, by MS): 63 ± 8 µM
AD compound captured, Wash 1 ([2]; […] gel 5 mg/mL, by UV-Vis): 90 ± 4 µM
AD compound captured, Wash 2 ([2]; […] gel 5 mg/mL, by UV-Vis): 80 ± 5 µM
AD compound captured, Wash 3 ([2]; […] gel 5 mg/mL, by UV-Vis): 73 ± 5 µM
capturing efficiency ([3]; […] 5 mg/mL): approximately 8%
AD compound captured, Wash 1 ([3]; […] gel 5 mg/mL, by MS): 114 ± 6 µM
AD compound captured, Wash 2 ([3]; […] gel 5 mg/mL, by MS): 102 ± 2 µM
AD compound captured, Wash 3 ([3]; […] gel 5 mg/mL, by MS): 94 ± 10 µM
AD compound captured, Wash 1 ([3]; […] gel 5 mg/mL, by UV-Vis): 104 ± 16 µM
AD compound captured, Wash 2 ([3]; […] gel 5 mg/mL, by UV-Vis): 82 ± 9 µM
AD compound captured, Wash 3 ([3]; […] gel 5 mg/mL, by UV-Vis): 72 ± 10 µM
